These are literature values, as cited in patent US20250043462A1, “INSECT REPELLENT POLYETHYLENE TEREPHTHALATE FIBERS” (The Government of the United States of America, as …, priority 2023, published 2025).

For the data set the following is noted: commercially available repellent sprays.

Bounds are passed on as bounds.

In the case of `CCN(CC)C(=O)c1cccc(C)c1` [DEET, N,N,-diethyl-meta-toluamide], the “duration of repellency before reapplication” value is on record as “up to 10 h”.

For the compound `CCC(C)OC(=O)N1CCCCC1CCO` (centres unmarked) [Picaridin, 1-(1-methylpropoxycarbonyl)-2-(2-hydroxyethyl)piperidine], the “duration of repellency before reapplication” value is at most 8 h.
